From US20200000772A1, “CENICRIVIROC COMBINATION THERAPY FOR THE TREATMENT OF FIBROSIS” (Tobira Therapeutics, Inc., priority 2014, published 2020)
Structures can show the parent of a compound that is named as a salt.

Tests used:
[1] = Phase 1 CVC and pioglitazone co-administration PK and safety study; assay type: in vivo, healthy subjects; details: CVC 150 mg QD and PGZ 45 mg QD
Description: Plasma samples were collected prior to each dose and over 24 hours at the end of each treatment period. Cmax, Cmin, tmax, and AUC0-tau were determined using non-compartmental methods. Geometric means, GMRs and CIs were calculated.

[2] = tested on: adults with CCR5 tropic HIV-1; test: Study 202 post-hoc APRI and FIB-4 fibrosis index scores; assay type: in vivo, human
Description: APRI and FIB-4 scores were calculated. Change in score category from baseline (BL) to Weeks 24 and 48 was assessed in patients with non-missing data. Correlations between changes from BL in APRI and FIB-4 scores, and MCP-1 (CCR2 ligand) and sCD14 (inflammatory biomarker) levels were evaluated.

[3] = tested on: HIV-1 infected adult subjects; test: Study 202 biomarkers of inflammation; assay type: in vivo, human
Description: As an exploratory analysis, levels of inflammation biomarkers MCP-1, sCD14, high sensitivity C-reactive protein [hs-CRP], interleukin-6 [IL-6], D-dimer, and fibrinogen) were measured. Baseline values and changes from baseline at Week 24 and Week 48 of MCP-1, sCD14, hs-CRP, IL-6, D-dimer, and fibrinogen are summarized in Table 22.
The sCD14 samples were originally analyzed in 2 separate batches: Batch 1 included samples leading up to the Week 24 primary analysis and Batch 2 included Week 32 and Week 48 (end of study) samples. A repeat analysis of archived samples all analyzed in one batch was conducted for consistency in analysis across time points. To control for the effects of covariates, a linear mixed-model repeated-measures analysis was conducted on the changes from baseline in sCD14 (analysis dated September 2013).

[4] = Solubility of cenicriviroc mesylate; assay type: physicochemical
Description: In one embodiment, the acid addition salt of cenicriviroc is cenicriviroc mesylate, e.g., (S)-8-[4-(2-Butoxyethoxy)phenyl]-1-isobutyl-N-(4-{[(1-propyl-1H-imidazol-5-yl)methyl]sulfinyl}phenyl)-1,2,3,4-tetrahydro-1-benzazocine-5-carboxamide monomethanesulfonoate. In one embodiment, the cenicriviroc mesylate is a crystalline material, such as a pale greenish-yellow crystalline powder.

CCc1ccc(CCOc2ccc(CC3SC(=O)NC3=O)cc2)nc1 (centres unmarked) [PGZ, Pioglitazone, reference compound]
Cmin on co-administration [1]: remained unchanged | steady-state Cmax and AUC0-tau on co-administration [1]: modest decrease

O=C1Nc2ccc(Cl)cc2[C@@](C#CC2CC2)(C(F)(F)F)O1 [EFV, efavirenz, reference compound]
subjects with APRI 0.5-1.5 ([2]; Baseline): 4% | subjects with APRI <0.5 ([2]; Baseline): 96% | subjects with FIB-4 <1.45 ([2]; Baseline): 100% | subjects with APRI <0.5 ([2]; Week 24): 100% | subjects with APRI decreased 1 category from baseline ([2]; Week 24): 5% | subjects with FIB-4 <1.45 ([2]; Week 24): 100% | subjects with APRI <0.5 ([2]; Week 48): 100% | subjects with APRI decreased 1 category from baseline ([2]; Week 48): 6% | subjects with FIB-4 1.45-3.25 ([2]; Week 48): 6% | subjects with FIB-4 <1.45 ([2]; Week 48): 94% | plasma MCP-1 over time ([3]; CVC 100 mg and 200 mg, EFV, up to Week 48): remained at baseline values | D-dimer Changes from baseline at Week 24, Mean ([3]; EFV 600 mg): -53 ng/mL | D-dimer Changes from baseline at Week 24, Median ([3]; EFV 600 mg): -26 ng/mL | D-dimer Changes from baseline at Week 48, Mean ([3]; EFV 600 mg): -34 ng/mL | D-dimer Changes from baseline at Week 48, Median ([3]; EFV 600 mg): 0.0 ng/mL | Fibrinogen Changes from baseline at Week 24, Mean ([3]; EFV 600 mg): -28 mg/dL | Fibrinogen Changes from baseline at Week 24, Median ([3]; EFV 600 mg): -31 mg/dL | Fibrinogen Changes from baseline at Week 48, Mean ([3]; EFV 600 mg): -30 mg/dL | Fibrinogen Changes from baseline at Week 48, Median ([3]; EFV 600 mg): -22 mg/dL | IL-6 Changes from baseline at Week 24, Mean ([3]; EFV 600 mg): -8.72 pg/mL | IL-6 Changes from baseline at Week 24, Median ([3]; EFV 600 mg): 0.00 pg/mL | IL-6 Changes from baseline at Week 48, Mean ([3]; EFV 600 mg): -13.11 pg/mL | IL-6 Changes from baseline at Week 48, Median ([3]; EFV 600 mg): 0.00 pg/mL | MCP-1 Changes from baseline at Week 24, Mean ([3]; EFV 600 mg): -44 pg/mL | MCP-1 Changes from baseline at Week 24, Median ([3]; EFV 600 mg): -17 pg/mL | MCP-1 Changes from baseline at Week 48, Mean ([3]; EFV 600 mg): 4.2 pg/mL | MCP-1 Changes from baseline at Week 48, Median ([3]; EFV 600 mg): 33.6 pg/mL | hs-CRP Changes from baseline at Week 24, Mean ([3]; EFV 600 mg): -0.46 mg/dL | hs-CRP Changes from baseline at Week 24, Median ([3]; EFV 600 mg): -0.01 mg/dL | hs-CRP Changes from baseline at Week 48, Mean ([3]; EFV 600 mg): -0.71 mg/dL | hs-CRP Changes from baseline at Week 48, Median ([3]; EFV 600 mg): -0.03 mg/dL | sCD14 Changes from baseline Week 32, Mean ([3]; EFV 600 mg, original values): 480000 pg/mL | sCD14 Changes from baseline Week 32, Median ([3]; EFV 600 mg, original values): 170000 pg/mL | sCD14 Changes from baseline at Week 12, Mean ([3]; EFV 600 mg, original values): 90000 pg/mL | sCD14 Changes from baseline at Week 12, Median ([3]; EFV 600 mg, original values): 1.8e+07 pg/mL | sCD14 Changes from baseline at Week 24, Mean ([3]; EFV 600 mg, original values): 230000 pg/mL | sCD14 Changes from baseline at Week 24, Median ([3]; EFV 600 mg, original values): 130000 pg/mL | sCD14 Changes from baseline at Week 48, Mean ([3]; EFV 600 mg, original values): 640000 pg/mL | sCD14 Changes from baseline at Week 48, Median ([3]; EFV 600 mg, original values): 460000 pg/mL | sCD14 over 48 weeks of treatment (linear mixed-model analysis of repeat sCD14 analysis) ([3]; both CVC treatment arms, EFV arm): increase

CCCCOCCOc1ccc(-c2ccc3c(c2)C=C(C(=O)Nc2ccc([S@@+]([O-])Cc4cncn4CCC)cc2)CCCN3CC(C)C)cc1 [cenicriviroc mesylate, (S)-8-[4-(2-Butoxyethoxy)phenyl]-1-isobutyl-N-(4-{[(1-propyl-1H-imidazol-5-yl)methyl]sulfinyl}phenyl)-1,2,3,4-tetrahydro-1-benzazocine-5-carboxamide monomethanesulfonoate]
solubility ([4]; 99.5% ethanol): sparingly soluble | solubility ([4]; acetonitrile, 1-octanol, tetrahydrofuran): slightly soluble | solubility ([4]; aqueous solution at pH 3): sparingly soluble | solubility ([4]; aqueous solution from pH 1 to 2): freely soluble | solubility ([4]; ethyl acetate and diethylether): practically insoluble | solubility ([4]; glacial acetic acid, methanol, benzyl alcohol, dimethylsulfoxide, N,N-dimethylformamide): freely soluble | solubility ([4]; pH 4 to 13 and in water): practically insoluble | solubility ([4]; pyridine and acetic anhydride): soluble
